The values below come from patent US11925611B2, “Use of ZT-1A and analogs thereof to prevent and/or treat neurodegenerative and neurocognitive disorders” (United States Government as Represented by the Department …, priority 2021, dated 2024).

Each structure is given as a SMILES string. Like-named read-outs stand apart in the source and are kept apart here.

Common to all, as to assay type: cell-based
For one assay, the system named is NKCC1. Nature of the assay: Cellular inhibition of NKCC1 phosphorylation (pThr203). The conditions noted are these: n = 3, — = no inhibition. The source says:
(§1) 8. Cellular Activity Profile of Inhibitors with the Salicyclic Amide
(§2) A list of the compounds evaluated for their ability to inhibit phosphorylation of SPAK/NKCC1/KCC3 activity is illustrated in Table 1 below.

The target in the next assay is SPAK (Homo sapiens, UniProt Q9UEW8). Put plainly: Cellular inhibition of SPAK phosphorylation (pSer373). The conditions noted are these: 50% inhibition of phosphorylation, n = 3, — = no inhibition.
Excerpt: as §1, §2

In a further assay the test system is KCC3. Nature of the assay: Cellular inhibition of KCC3 phosphorylation (pThr991, pThr1048). Conditions: Isotonic conditions; n = 3; — = no inhibition; read-out: KCC3 pThr1048 (μM) Iso.
Excerpt: as §1, §2

[1] abbreviates: Hypotonic conditions, read-out: NKCC1 pThr203 (μM) hypo.
The mark [2] stands for this setting: Isotonic conditions, read-out: NKCC1 pThr203 (μM) Iso.
Where [3] appears, read: Hypotonic conditions, read-out: SPAK pSer373 (μM) hypo.
[4] abbreviates: Isotonic conditions, read-out: SPAK pSer373 (μM) Iso.

With `Cc1cc(C(C#N)c2ccc(Cl)cc2)c(Cl)cc1NC(=O)c1ccccc1O` (stereo not drawn) [1b], the IC50 stood at 1 µM in the assay on NKCC1 (setting [1]); 3 µM with NKCC1 (setting [2]); 3 µM on SPAK (setting [3]); 3 µM at SPAK (setting [4]); 3 µM in the assay on KCC3.

For the compound `Cc1cc(C(C#N)c2ccc(Cl)cc2)c(Cl)cc1NC(=O)c1ccccc1S` (stereo not drawn) [1c (ZT-05-037-01)], the IC50 with NKCC1 (setting [1]) was 3 µM; in the assay on NKCC1 (setting [2]), 1 µM; at SPAK (setting [3]), 3 µM; on SPAK (setting [4]) it was 3 µM; in the assay on KCC3, 3 µM.

Consider `Cc1cc(C(C#N)c2ccc(Cl)cc2)c(Cl)cc1NC(=O)c1ccccc1N` (stereo not drawn) [1d(ZT-06-022-01)], for which the IC50 in the assay on NKCC1 (setting [1]) came out at 3 µM; in the assay with NKCC1 (setting [2]), 1 µM; at SPAK (setting [3]), 3 µM; on SPAK (setting [4]), 3 µM; in the assay with KCC3, 3 µM.

As for `Cc1cc(C(C#N)c2ccc(Cl)cc2)c(Cl)cc1NC(=O)c1cc(Cl)cc(Cl)c1O` (stereo not drawn) [1f], the IC50 was 3 µM in the assay on NKCC1 (setting [1]); 1 µM in the assay on NKCC1 (setting [2]); 3 µM on SPAK (setting [3]); 3 µM at SPAK (setting [4]); 3 µM with KCC3.

`Cc1cc(C(C#N)c2ccc(Cl)cc2)c(Cl)cc1NC(=O)c1cc(F)ccc1O` (stereo not drawn) [1g(ZT-06-055-01)]: the IC50 in the assay on NKCC1 (setting [1]) was 3 µM; with NKCC1 (setting [2]), 1 µM; at SPAK (setting [3]), 3 µM; at SPAK (setting [4]) it was 3 µM; in the assay with KCC3, 3 µM.

`Cc1cc(C(C#N)c2ccc(Cl)cc2)c(Cl)cc1NC(=O)c1cccc(F)c1O` (stereo not drawn) [1h(ZT-06-039-01)]: the IC50 with NKCC1 (setting [1]) is 3 µM; with NKCC1 (setting [2]) it was 1 µM; at SPAK (setting [3]) it was 3 µM; on SPAK (setting [4]) it was 3 µM; in the assay with KCC3 it was 3 µM.
